pEC50: −log10 of the molar value.
Tested on: HBV
Assay: HBV-DNA antiviral assay using HepG2.117 cells (intracellular HBV DNA by qPCR)
Format: cell-based, HBV genotype D
Conditions: Hepatitis B virus, HepG2.117, 72 h, HBV DNA inhibition, 3 days incubation, read-out: EC50
Method in brief: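 HepG2.117 cells (stably integrated genotype D HBV, Tet-off) seeded without doxycycline to induce pgRNA, then treated next day with 9 concentrations (4-fold dilutions, 2% DMSO) for 3 days at 37 °C. Intracellular HBV DNA quantified by qPCR against standard curve, viability by ATP content; inhibition relative to DMSO control, EC50/EC90/CC50 by non-linear regression.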

SMILES	pEC50
CC1(O)CN(c2ccc(-n3c(C(=O)NCc4ccccc4)c4n(c3=O)CCN(C(=O)c3ccc(Br)c(Cl)c3)C4)cc2)C1 [Compound 117, N-benzyl-7-(4-bromo-3-chloro-benzoyl)-2-[4-(3-hydroxy-3-methyl-azetidin-1-yl)phenyl]-3-oxo-6,8-dihydro-5H-imidazo[1,5-a]pyrazine-1-carboxamide]	6.30 to 7.30
O=C(NCc1ccccc1)c1c2n(c(=O)n1-c1ccc(N3CC(O)(C(F)(F)F)C3)cc1)CCN(C(=O)c1ccc(Br)c(Cl)c1)C2 [Compound 118, N-benzyl-7-(4-bromo-3-chloro-benzoyl)-2-[4-[3-hydroxy-3-(trifluoromethyl)azetidin-1-yl]phenyl]-3-oxo-6,8-dihydro-5H-imidazo[1,5-a]pyrazine-1-carboxamide]	6.30 to 7.30
O=C(NCc1ccccc1)c1c2n(c(=O)n1-c1ccc(N3CCOC(F)(F)C3)cc1)CCN(C(=O)c1ccc(Br)c(Cl)c1)C2 [Compound 119, N-benzyl-7-(4-bromo-3-chloro-benzoyl)-2-[4-(2,2-difluoromorpholin-4-yl)phenyl]-3-oxo-6,8-dihydro-5H-imidazo[1,5-a]pyrazine-1-carboxamide]	6.30 to 7.30
O=C(NCc1ccccc1)c1c2n(c(=O)n1-c1ccc(N3CCOC4(CC4)C3)cc1)CCN(C(=O)c1ccc(Br)c(Cl)c1)C2 [Compound 120, N-benzyl-7-(4-bromo-3-chloro-benzoyl)-2-[4-(4-oxa-7-azaspiro[2.5]octan-7-yl)phenyl]-3-oxo-6,8-dihydro-5H-imidazo[1,5-a]pyrazine-1-carboxamide]	6.30 to 7.30
O=C(NCc1ccccc1)c1c2n(c(=O)n1-c1ccc(N3CC4CCC(C3)O4)cc1)CCN(C(=O)c1ccc(Br)c(Cl)c1)C2 [Compound 121, N-benzyl-7-(4-bromo-3-chloro-benzoyl)-2-[4-(8-oxa-3-azabicyclo[3.2.1]octan-3-yl)phenyl]-3-oxo-6,8-dihydro-5H-imidazo[1,5-a]pyrazine-1-carboxamide]	6.30 to 7.30
O=C(NCc1ccccc1)c1c2n(c(=O)n1-c1ccc(N3CCN(CC(F)(F)F)CC3)cc1)CCN(C(=O)c1ccc(Br)c(Cl)c1)C2 [Compound 122, N-benzyl-7-(4-bromo-3-chloro-benzoyl)-3-oxo-2-[4-[4-(2,2,2-trifluoroethyl)piperazin-1-yl]phenyl]-6,8-dihydro-5H-imidazo[1,5-a]pyrazine-1-carboxamide]	6.30 to 7.30
Cn1cnc2cc(-n3c(C(=O)NCc4ccccc4)c4n(c3=O)CCN(C(=O)c3ccc(Br)c(Cl)c3)C4)ccc21 [Compound 123, N-benzyl-7-(4-bromo-3-chloro-benzoyl)-2-(1-methylbenzimidazol-5-yl)-3-oxo-6,8-dihydro-5H-imidazo[1,5-a]pyrazine-1-carboxamide]	5.30 to 6.30
Cn1cnc2ccc(-n3c(C(=O)NCc4ccccc4)c4n(c3=O)CCN(C(=O)c3ccc(Br)c(Cl)c3)C4)cc21 [Compound 124, N-benzyl-7-(4-bromo-3-chloro-benzoyl)-2-(3-methylbenzimidazol-5-yl)-3-oxo-6,8-dihydro-5H-imidazo[1,5-a]pyrazine-1-carboxamide]	5.30 to 6.30
O=C(NCc1ccccc1)c1c2n(c(=O)n1-c1ccc3ocnc3c1)CCN(C(=O)c1ccc(Br)c(Cl)c1)C2 [Compound 126, 2-(1,3-benzoxazol-5-yl)-N-benzyl-7-(4-bromo-3-chloro-benzoyl)-3-oxo-6,8-dihydro-5H-imidazo[1,5-a]pyrazine-1-carboxamide]	5.30 to 6.30
CNc1nc2cc(-n3c(C(=O)NCc4ccccc4)c4n(c3=O)CCN(C(=O)c3ccc(Br)c(Cl)c3)C4)ccc2o1 [Compound 127, N-benzyl-7-(4-bromo-3-chloro-benzoyl)-2-[2-(methylamino)-1,3-benzoxazol-5-yl]-3-oxo-6,8-dihydro-5H-imidazo[1,5-a]pyrazine-1-carboxamide]	5.30 to 6.30
O=C(NCc1ccccc1)c1c2n(c(=O)n1-c1ccc3c(ccn3CCO)c1)CCN(C(=O)c1ccc(Br)c(Cl)c1)C2 [Compound 128, N-benzyl-7-(4-bromo-3-chloro-benzoyl)-2-[1-(2-hydroxyethyl)indol-5-yl]-3-oxo-6,8-dihydro-5H-imidazo[1,5-a]pyrazine-1-carboxamide]	6.30 to 7.30
O=C(NCc1ccccc1)c1c2n(c(=O)n1-c1ccc(OC3CC(O)C3)cc1)CCN(C(=O)c1ccc(Br)c(Cl)c1)C2 (stereo not drawn) [Compound 129, N-benzyl-7-(4-bromo-3-chloro-benzoyl)-2-[4-(3-hydroxycyclobutoxy)phenyl]-3-oxo-6,8-dihydro-5H-imidazo[1,5-a]pyrazine-1-carboxamide]	6.30 to 7.30
